Paper PMC11325084, “Pharmacokinetics and tissue distribution of LN002, a new compound alternative oxidase inhibitor against Cryptosporidium in rats” (Frontiers in Pharmacology, 2024)
Where two headings read alike, the source gives them in different places.

How the values were obtained:
[1] = Pharmacokinetics of LN002 in rat plasma after single intravenous injection or oral gavage; type: in vivo, Sprague–Dawley (SD) rats; conditions: rats; for AUC(0-t): read-out: AUC0–24 h
Experimental: A total of 24 SD rats, half for each sex, were randomly distributed into four groups and used in the plasma PK study. Heparin sodium was used to prevent blood clotting. Groups 1, 2, and 3 were single-dose oral administration groups, and the administered doses were 100, 200, and 400 mg/kg, respectively. The fourth group was a single-dose group, in which the subjects received 1 mg/kg LN002 via tail vein intravenous injection (In the oral administration group, the drugs were dissolved in 0.5% sodium carboxymethylcellulose, whereas those in the intravenous injection group were dissolved in N,N-dimethylformamide). After administration for each group, approximately 200–300 μL of plasma samples were collected from the tail vein at predefined times (0.167, 0.5, 0.75, 1, 2, 3, 4, 6, 8, 12, and 24 h) ([Song et al., 2021a]). Subsequently, these samples were then placed in centrifuge tubes containing heparin sodium, subjected to centrifugation at 5000 rpm for 10 min at 4°C, and the resulting supernatant was collected and stored at −20°C until further analysis. An aliquot of 100 µL of rat plasma was transferred into a 2 mL Eppendorf (EP) tube and precipitated with 300 µL of acetonitrile. The mixture was vortexed for 1 min, then centrifuged at 13,000 rpm at 4°C for 10 min, and passed through a 0.22 μm filter membrane. Final analysis was conducted by injecting 20 µL of supernatant into HPLC. A Shimadzu LC-20A system (Shimadzu Technologies, Kyoto, Japan) equipped with a LabSolutions system (version 5.1) system was used for HPLC analysis. The separation process utilized an ARD-C18 column (250 mm × 4.6 mm, 5 µm) (Zhongpu Technology Co., Ltd., Fuzhou, China). The analytes were detected using a UV detector at 333 nm. The chromatographic conditions used an isocratic mobile phase that combines methanol (solvent A) and deionized water (solvent B) (75:25, v/v), and they were propelled through the column at a constant flow rate of 1 mL/min, ensuring uniform separation. The injection volume was 20 μL. The temperature of the column was set to 40°C. Pharmacokinetic data were obtained via non-compartmental PK analysis of total concentration versus time profiles for plasma using Phoenix WinNonlin 8.2 (Certara, L.P., Princeton, NJ, United States). Statistical analysis and graphing were undertaken using GraphPad Prism 9.5 for Windows (GraphPad Software, Inc., La Jolla, CA, United States).

[2] = Stability of LN002 stock solution; type: physicochemical; conditions: for Stock solution stability, measured concentration: nominal concentration 1,000 ng/mL, n = 6, mean ± SD
Experimental: LN002 was dissolved in N,N-dimethylformamide, then mixed to make a concentration of 1 mg/mL standard solution, and stored at −20°C. By investigating the low, middle, and high-concentration stability of rat plasma, the liver and intestinal contents in six replicates at different storage conditions, autosampler, short-term, freeze and thaw, long-term stability, and stock solution stability evaluations were conducted.

[3] = both sexes, Sprague-Dawley, rat, iv, plasma, i.v. 1 mg/kg, n = 6, mean ± SD
[4] = both sexes, Sprague-Dawley, rat, plasma, iv, 1 mg/kg, i.v. 1 mg/kg, n = 6, mean ± SD
[5] = both sexes, Sprague-Dawley, rat, plasma, po, 100 mg/kg, oral 100 mg/kg, n = 6, mean ± SD
[6] = both sexes, Sprague-Dawley, rat, plasma, po, 200 mg/kg, oral 200 mg/kg, n = 6, mean ± SD
[7] = both sexes, Sprague-Dawley, rat, plasma, po, 400 mg/kg, oral 400 mg/kg, n = 6, mean ± SD
[8] = both sexes, Sprague-Dawley, rat, plasma, po, 400 mg/kg, oral single dose, range across 100, 200 and 400 mg/kg
[9] = both sexes, Sprague-Dawley, rat, plasma, oral 100 mg/kg, n = 6, mean ± SD
[10] = both sexes, Sprague-Dawley, rat, plasma, oral 200 mg/kg, n = 6, mean ± SD
[11] = both sexes, Sprague-Dawley, rat, plasma, oral 400 mg/kg, n = 6, mean ± SD

N#C/C(=C\c1c[nH]nc1-c1ccccc1)c1nn(-c2ccccc2)c(N)c1C#N [LN002, 5-amino-3-[1-cyano-2-(3-phenyl-4-vinopyrazole))-1-phenyl-4-vinopyrazole]
Tmax ([1]; both sexes, Sprague-Dawley, rat, iv, plasma, i.v. 1 mg/kg, n = 6): 0.75 h | AUC(0-inf) [1, 3]: 8650 ± 1940 ng·h/mL | clearance [1, 3]: 1.83 mL/min/kg | Vd ([1]; both sexes, Sprague-Dawley, rat, iv, plasma, i.v. 1 mg/kg, n = 6, mean ± SD, read-out: Vd): 1.69 ± 0.44 L/kg | Cmax [1, 4]: 2940 ± 2160 ng/mL | half-life [1, 4]: 10.9 ± 6.56 h | AUC(0-t) ([1]; both sexes, Sprague-Dawley, rat, plasma, iv, 1 mg/kg, plasma, i.v. 1 mg/kg, n = 6, mean ± SD): 7020 ± 1520 ng·h/mL | Cmax [1, 5]: 850 ± 190 ng/mL | half-life [1, 5]: 18 ± 5.82 h | bioavailability ([1]; both sexes, Sprague-Dawley, rat, plasma, po, 100 mg/kg, oral 100 mg/kg, read-out: F (oral bioavailability)): 0.32% | AUC(0-t) ([1]; both sexes, Sprague-Dawley, rat, plasma, po, 100 mg/kg, plasma, oral 100 mg/kg, n = 6, mean ± SD): 2280 ± 227 ng·h/mL | CL/F ([1]; both sexes, Sprague-Dawley, rat, plasma, po, 100 mg/kg, plasma, oral 100 mg/kg, n = 6, mean ± SD, read-out: Cl (Cl/F in text) (converted)): 433 mL/min/kg | Cmax [1, 6]: 1670 ± 106 ng/mL | half-life [1, 6]: 18 ± 14.8 h | bioavailability ([1]; both sexes, Sprague-Dawley, rat, plasma, po, 200 mg/kg, oral 200 mg/kg, read-out: F (oral bioavailability)): 0.29% | AUC(0-t) ([1]; both sexes, Sprague-Dawley, rat, plasma, po, 200 mg/kg, plasma, oral 200 mg/kg, n = 6, mean ± SD): 4070 ± 779 ng·h/mL | CL/F ([1]; both sexes, Sprague-Dawley, rat, plasma, po, 200 mg/kg, plasma, oral 200 mg/kg, n = 6, mean ± SD, read-out: Cl (Cl/F in text) (converted)): 524 mL/min/kg | Cmax [1, 7]: 4030 ± 410 ng/mL | half-life [1, 7]: 18.8 ± 11.4 h | bioavailability ([1]; both sexes, Sprague-Dawley, rat, plasma, po, 400 mg/kg, oral 400 mg/kg, read-out: F (oral bioavailability)): 0.27% | Cmax [1, 8]: 850 to 4030 ng/mL | half-life [1, 8]: 18 to 18.8 h | bioavailability ([1]; both sexes, Sprague-Dawley, rat, plasma, po, 400 mg/kg, oral single dose, range across 100, 200 and 400 mg/kg, read-out: F): 0.27 to 0.32% | AUC(0-t) ([1]; both sexes, Sprague-Dawley, rat, plasma, po, 400 mg/kg, plasma, oral 400 mg/kg, n = 6, mean ± SD): 7500 ± 507 ng·h/mL | CL/F ([1]; both sexes, Sprague-Dawley, rat, plasma, po, 400 mg/kg, plasma, oral 400 mg/kg, n = 6, mean ± SD, read-out: Cl (Cl/F in text) (converted)): 650 mL/min/kg | AUC(0-t) ([1]; both sexes, Sprague-Dawley, rat, plasma, po, 400 mg/kg, plasma, oral single dose, range across 100, 200 and 400 mg/kg): 2280 to 7500 ng·h/mL | CL/F ([1]; both sexes, Sprague-Dawley, rat, plasma, po, 400 mg/kg, plasma, oral single dose, range across 100, 200 and 400 mg/kg, read-out: Cl/F): 433 to 650 mL/min/kg | Tmax ([1]; both sexes, Sprague-Dawley, rat, plasma, oral 100 mg/kg, n = 6): 1 h | AUC(0-inf) [1, 9]: 3530 ± 734 ng·h/mL | Vd/F [1, 9]: 582 ± 270 L/kg | Tmax ([1]; both sexes, Sprague-Dawley, rat, plasma, oral 200 mg/kg, n = 6): 1 h | AUC(0-inf) [1, 10]: 6030 ± 2310 ng·h/mL | Vd/F [1, 10]: 764 ± 314 L/kg | AUC(0-inf) [1, 11]: 11400 ng·h/mL | Vd/F [1, 11]: 869 ± 279 L/kg | Tmax ([1]; both sexes, Sprague-Dawley, rat, plasma, oral single dose, across 100, 200 and 400 mg/kg): 1 h | PK behaviour over dose (in words) ([1]; oral 100, 200 and 400 mg/kg): linear | Vd ([1]; plasma, oral single dose, range across 100, 200 and 400 mg/kg): 581.54 to 869.21 L/kg | Stock solution stability, measured concentration ([2]; 15 d): 0.941 ± 0.091 | Stock solution stability, measured concentration ([2]; 30 d): 0.924 ± 0.051 | Degradation of stock solution (in words) ([2]; stock solution, 15 d and 30 d): no appreciable degradation
